Assay [1] relates to Rx-GFP ES cells. In words: Differentiation into hypothalamic progenitor cells by SFEBq/gfCDM, percentage of Rx-GFP+ cells by FACS on day 7. To be noted: for Rx-GFP positivity rate recovered in the presence of insulin: LY294002 5 μM, Akt inhibitor VIII 2 μM. The assay is classed as cell-based, mouse. The protocol:
Differentiation culture was performed under the same culturing conditions as Example 13 for 7 days. For analyzing the differentiated cells, an antibody against the Rx protein, which is a hypothalamic and retinal progenitor cell marker, was used. In hypothalamic progenitor cells, in addition to Rx, a protein called nestin is expressed, whereas in retinal progenitor cells, only Rx is expressed but nestin is not expressed, so that hypothalamic progenitor cells were identified by a fluorescent immunostaining method with the co-expression of Rx and nestin as an index.
Furthermore, EB5 cells wherein GFP was knocked in at the Rx gene locus (hereinafter, Rx-GFP ES cells) were prepared, and the expression of Rx-GFP was also analyzed by FACS.
(§1) Differentiation culture was performed under the same culturing conditions as Example 14 for 7 days, and the influence of the addition of insulin to the medium on the differentiation of hypothalamic progenitor cells from ES cells was analyzed by FACS using Rx-GFP ES cells. The intracellular signal transduction of insulin is involved by roughly two pathways (MAPK pathway and PI3K-Akt pathway). […] LY294002, Akt inhibitor VIII, PD98059 or DMSO (vehicle control) was added on day 2 of cultivation.

The subject of assay [2] is Human ES cells (KhES #1). Put plainly: Hypothalamus gene marker expression in human ES cells by modified SFEBq/gfCDM (quantitative PCR, day 31). The assay is classed as cell-based. The settings on record: insulin 7 μg/ml, 31 days.
The subject of assay [3] is aggregate masses derived from a mouse ES cell. Put plainly: Ca++ imaging (fluo4-AM) of cerebral neurons produced by the SFEBq method. In kind it is cell-based. As for the experimental part:
To confirm the activities and network formation of cerebral neurons produced by the SFEBq method, an analysis was performed by a Ca^++ imaging method using fluo4-AM. The method of examination was as described in the literature (Ikegaya et al, 2005, Neurosci. Res., 52, 132-138).
Aggregate masses derived from a mouse ES cell cultured by the method described in Example 1 for 18 days were further cultured on the Transwell culture insert (Corning) using a DMEM/F12 medium supplemented with N2 for 7 days (FIG. 3A, view A). Ca^++ imaging was performed at room temperature using an artificial cerebrospinal fluid.

In assay [4] the test system is Rx-GFP ES cells. Put plainly: Dorsal/ventral hypothalamic marker expression in Rx-GFP-positive re-aggregate masses (fluorescent immunostaining, day 13). In kind it is cell-based, mouse. The protocol: The cells of each fraction were dispensed to a non-cell-adhesive 96-well culture plate at 2500-5000 cells per well, and further cultured using a DMEM/F12 medium supplemented with 7 g/L glucose, 10% KSR and penicillin/streptomycin for 3 days. […] Three days later, half the medium was replaced with a DFNB medium (a DMEM/F12 supplemented with 7 g/l of glucose, 1×N2 supplement and 1×B27 supplement) supplemented with 10 ng/ml of CNTF, and the cells were further cultured for 3 days.
After cultivation for a total of 13 days, the re-aggregate masses were prepared as frozen sections, and the properties of the differentiated cells were analyzed by a fluorescent immunostaining method. For evaluating the effect of Shh, 30 nM Shh was added from 4 days after the start of cultivation.

Assay [5] relates to Bf1/Venus-mES cells. Put plainly: Layer-specific neuron differentiation of FACS-sorted, re-aggregated SFEBq cerebral progenitors after Notch inhibition (fluorescent immunostaining). To be noted: further 6 days culture. The assay is classed as cell-based, mouse. The protocol:
After Bf1/Venus-mES cells were cultured for differentiation for different lengths of periods (9 days or 12 days), the resulting Venus-positive cells were separated by FACS, and rapid re-aggregation (5000 cells/well) was performed using a non-cell-adhesive 96-well culture plate. Starting on the following day, rapid induction of differentiation into neurons was performed by a treatment with the Notch inhibitor DAPT (10 μM; known to promote neuron differentiation; Nelson et al, 2007); after further differentiation culture for 6 days, layer-specific markers were analyzed by a fluorescent immunostaining method (FIG. 6, view A).

The test system of assay [6] is Mouse ES cells (EB5 and Sox1-GFP ES cells). Put plainly: Nerve differentiation of mouse ES cells by the SFEBq/gfCDM method. The assay is classed as cell-based. To be noted: 15 μg/ml in differentiation medium. As for the experimental part: To induce the differentiation of nerves by suspension culture, ES cells were mono-dispersed using 0.25% trypsin-EDTA (Invitrogen), suspended in 150 μl of a differentiation medium to obtain a cell density of 3000 cells per well on a non-cell-adhesive 96-well culture plate (Lipidure-Coat, NOF Corp.), and incubated at 37° C., 5% CO2 for 5 days.
The differentiation medium used was Iscove's Modified Dulbecco's Medium (IMDM)/Hams F12 1:1 (Invitrogen) supplemented with 1× Chemically-defined lipid concentrate (Invitrogen), monothioglycerol (450 μM; Sigma) and bovine serum albumin (a recrystallization-purified product of >99% purity; Sigma).
Differentiation into nerve progenitor cells was analyzed as described previously (Watanabe et al., Nature Neuroscience, 2005) by FACS using Sox1-GFP ES cells that emit fluorescence when differentiated into nerves. The FACS was performed using FACSAria (Beckton Dickenson) and its data were analyzed using FACSDiva software. Nerve differentiation was also analyzed by a fluorescent immunostaining method using EB5 cells.

The subject of assay [7] is SFEBq culture product. In words: qPCR of marker genes in the SFEBq culture product with insulin. The assay is classed as cell-based, mouse. The settings on record: insulin treatment. The protocol: The expression of a marker gene is analyzed by, for example, performing quantitative PCR using the 7500 Fast Real-Time PCR System (Applied Biosystems) in accordance with the manufacturer's instructions, and normalizing the obtained data by the expression of GAPDH. The method of quantitative PCR is obvious to those skilled in the art. Alternatively, cells may be manipulated to allow the desired marker gene to be expressed as a fusion protein of a marker gene product and GFP or the like (knocking-in). It is also possible to detect the expression of the protein using an antibody specific for a marker gene product.
as §1

Assay [8] has as its system Bf1/Venus-mES cells. In words: Cerebral site-specific differentiation of re-aggregated SFEBq cerebral progenitors with secreted pattern formation factors (fluorescent immunostaining). The assay is classed as cell-based, mouse. The settings on record: BMP4 0.5 ng/ml. As for the experimental part: Bf1/Venus-mES cells were cultured for differentiation by the SFEBq method for 7 days, after which the resulting Venus-positive cells were separated by FACS, and rapid re-aggregation (5000 cells/well) was performed using a non-cell-adhesive 96-well culture plate. Secreted pattern formation factors such as Fgf 8b (50 ng/ml), the Fgf receptor inhibitor FGFR3-Fc (50 ng/ml), Wnt3a (20 ng/ml), and BMP4 (0.5 ng/ml) were added thereto, and the cells were cultured for 3 to 12 days. The expression of cerebral part-specific markers was analyzed by a fluorescent immunostain method (FIG. 7A, view A).

[9] abbreviates: 7 μg/ml insulin, added on day 2.
Where [10] appears, read: room temperature, artificial cerebrospinal fluid.
Where [11] appears, read: 10 μM treatment after 12 days of differentiation culture.

Entries after “also recorded” stand apart in the source; their conditions may differ. Read-outs that look alike come from different tables or passages of the source.

Data on 14 molecules can be found in patent US10934523B2, “Method for culture of stem cell” (RIKEN, priority 2008, dated 2021).

`O=c1[nH]c2ccccc2n1C1CCN(Cc2ccc(-c3nc4cc5[nH]cnc5cc4nc3-c3ccccc3)cc2)CC1` [Akt inhibitor VIII, 1,3-Dihydro-1-(1-((4-(6-phenyl-1H-imidazo[4,5-g]quinoxalin-7-yl)phenyl)methyl)-4-piperidinyl)-2H-benzimidazol-2-one]: the “Rx-GFP positivity rate recovered in the presence of insulin” value in assay [1] (setting [9]) was approximately 28%. In addition, in assay [2], the “Rx expression without addition of Akt inhibitor VIII, relative to culture with 2 μM from day 9” value amounted to 50% and the “Vax1 expression without addition of Akt inhibitor VIII, relative to culture with 2 μM from day 9” value came out at 25%.

With `N#Cc1cc2[nH]c(=O)c(=O)[nH]c2cc1[N+](=O)[O-]` [CNQX], in assay [3] (setting [10]), the “repeated synchronized Ca++ elevations over a long distance (Ca++ oscillation)” value was “inhibited”.

Turning to `CC1=C2C[C@H]3[C@@H](CC=C4C[C@@H](O)CC[C@@]43C)[C@@H]2CC[C@]12O[C@@H]1C[C@H](C)CN[C@H]1[C@H]2C` [Cyclopamine, 11-Deoxojervine], the “expression of dorsal/ventral hypothalamus markers compared with the Shh treatment” value in assay [4] is reported as “reverse result”.

Regarding `C[C@H](NC(=O)Cc1cc(F)cc(F)c1)C(=O)N[C@H](C(=O)OC(C)(C)C)c1ccccc1` [DAFT], in assay [5] (10 μM treatment after 9 days of differentiation culture), the “cells differentiated into Reelin-positive Cajal-Retzius cells” value was “more than 50%”. Further, in assay [5] (setting [11]), the Reelin-positive cells entry is “less than 10%” and the “cells differentiated into Ctip2/Emx1-positive cerebral cortical neurons specific for the 5th layer” value is “more than 60%”.

For `Cl.O=c1cc(N2CCOCC2)oc2c(-c3ccccc3)cccc12` [LY294002, 2-(4-morpholinyl)-8-phenyl-1(4H)-benzopyran-4-one hydrochloride], in assay [1] (setting [9]), the “Rx-GFP positivity rate recovered in the presence of insulin” value is reported as “about 20%”.

Take `COc1cccc(-c2cc(=O)c3ccccc3o2)c1N` [PD98059]: in assay [1] (7 μg/ml insulin, PD98059 0.5-10 μM, added on day 2), the “antagonism of the inhibitory effect of insulin on differentiation into hypothalamic progenitor cells” value is “did not antagonize; also recorded: not noted”.

`c1ccc2c(Oc3nc(Nc4ccc(N5CCOCC5)cc4)c4ncn(C5CCCCC5)c4n3)cccc2c1` [Purmorphamine, 2-(1-Naphthoxy)-6-(4-morpholinoanilino)-9-cyclohexylpurine]: the “expression of dorsal/ventral hypothalamus markers compared with the Shh treatment” value in assay [4] (Cyclopamine treatment, Purmorphamine 0.5 μM in place of Shh) was “same effects as with Shh”.

On to `NC(=O)CC[C@H](N)C(=O)O` [glutamine], for which, in assay [3] (setting [10]), the “Ca++ elevations synchronized or not synchronized with surrounding cells” value is reported as “enhanced”.

On to `O=[Se](O)O` [sodium selenite], for which the “percentage of Rx-GFP” value in assay [1] (concentration in differentiation medium increased from 0.017 mg/L to 0.025 mg/L, control 50-70%) is listed as “about 80%”.

With `NC1=N[C@H](O)[C@H]2[C@H]3O[C@]4(O)O[C@@H]([C@@H](O)[C@@]2(N1)[C@@H]4O)[C@]3(O)CO` [tetrodotoxin], in assay [3], the “Ca++ elevations synchronized or not synchronized with surrounding cells” value is “inhibited” and the “repeated synchronized Ca++ elevations over a long distance (Ca++ oscillation)” value is reported as “inhibited”.

Turning to “human apo-transferrin: human apo-transferrin (Sigma), medium additive”, in assay [6], the “influence of addition or non-addition on the differentiation results” value is recorded as “did not influence”.

As to “insulin: insulin added to serum-free medium”, the Rx-GFP positivity rate entry in assay [1] (7 μg/ml insulin) is “less than 5%”. Moreover, in assay [1] (insulin 7 μg/ml added to gfCDM on day 5 or before), the “expression of Rx-GFP, time-window analysis” value was “suppressed”. In addition, in assay [1] (insulin 7 μg/ml present after day 4), the “effect on Rx-GFP+%, time-window analysis” value is “decreased substantially”. Moreover, the “effect on Rx-GFP+%, time-window analysis” value in assay [1] (insulin 7 μg/ml present during the first 3 days) is “almost no inhibitory effect”. In assay [7], the “expression of a caudal marker” value is recorded as “induced moderately” and the “expression of the most rostral CNS marker” value was “suppressive effect”.

B1: BMP4: protein belonging to the BMP family, BMP signal promoter (protein, UniProt P12644 293-408, looked up)
Bone morphogenetic protein 4: SPKHHSQRARKKNKNCRRHSLYVDFSDVGWNDWIVAPPGYQAFYCHGDCPFPLADHLNSTNHAIVQTLVNSVNSSIPKACCVPTELSAISMLYLDEYDKVVLKNYQEMVVEGCGCR
Turning to B1, in assay [8], the “differentiation of choroidal tissue (TTR-positive)” value is given as “noted”.

B2: Wnt3a: protein belonging to the Wnt family, Wnt signal promoter (protein, UniProt P56704 19-352, looked up)
Protein Wnt-3a: SYPIWWSLAVGPQYSSLGSQPILCASIPGLVPKQLRFCRNYVEIMPSVAEGIKIGIQECQHQFRGRRWNCTTVHDSLAIFGPVLDKATRESAFVHAIASAGVAFAVTRSCAEGTAAICGCSSRHQGSPGKGWKWGGCSEDIEFGGMVSREFADARENRPDARSAMNRHNNEAGRQAIASHMHLKCKCHGLSGSCEVKTCWWSQPDFRAIGDFLKDKYDSASEMVVEKHRESRGWVETLRPRYTYFKVPTERDLVYYEASPNFCEPNPETGSFGTRDRTCNVSSHGIDGCDLLCCGRGHNARAERRREKCRCVFHWCCYVSCQECTRVYDVHTCK
With B2, the “cells expressing Otx2 and Lmx1a (hem area markers)” value in assay [8] (Wnt3a 20 ng/ml) was 2-30%.
